From patent EP4603105A1, “PHARMACEUTICAL COMPOSITION CONTAINING CYCLIC COMPOUND HAVING SELECTIVE KRAS INHIBITORY EFFECT AGAINST HRAS AND NRAS” (CHUGAI SEIYAKU KABUSHIKI KAISHA, priority 2022, dated 2024)
Where a SMILES comes first, the peptide text is derived from it. Bridges are numbered along the chain shown (N, C = ends). [ ]: non-standard residue; d: D form. The star is where a group is joined. hPhe(3-Cl-4-CF3) = N[C@@H](CCc1ccc(C(F)(F)F)c(Cl)c1)C(=O)O; NPrPhe(4-CF3) = CCCN[C@@H](Cc1ccc(C(F)(F)F)cc1)C(=O)O; Pro(4-spirocPr) = O=C(O)[C@@H]1CC2(CC2)CN1; Morpholine(3S-CO) = O=C(O)[C@@H]1COCCN1; NMeGly(cPent) = CN[C@H](C(=O)O)C1CCCC1; Pro(4,4-F2) = O=C(O)[C@@H]1CC(F)(F)CN1; Gly(cPent) = N[C@H](C(=O)O)C1CCCC1; Hyp = O=C(O)[C@@H]1C[C@@H](O)CN1; NMeD = CN[C@@H](CC(=O)O)C(=O)O; NMeL = CN[C@@H](CC(C)C)C(=O)O; Morpholide = C1CN(*)CCO1; Ac5c = NC1(C(=O)O)CCCC1; Aze = O=C(O)[C@@H]1CCN1; Ac4c = NC1(C(=O)O)CCC1; Sar = CNCC(=O)O

Key:
[1] = tested on: human lung cancer strain NCI-H441; type: cell-based
Procedure, shortened: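 Readout: […] after the ATP-based reagent. Compound: serial dilutions in dimethyl sulfoxide.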

HRAS wild-type protein = HRAS wild-type protein (Homo sapiens, UniProt P01112); assay: Binding to HRAS by surface plasmon resonance (SPR), KD and KD ratio to KRAS
Procedure, shortened: (§1)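 GDP-loaded biotinylated Avi-tag RAS proteins (E. coli-expressed) captured on a Biotin CAPture chip at ~100–300 RU; single-cycle kinetics at 30°C, 100 µL/min, 75 s injections of rising compound concentrations. HBS pH 7.4 running buffer with 1 mM DTT, 10 mM MgCl2, 10 µM GDP, 4% DMSO. KD from 1:1 binding fit.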

[2] = target: GDP-bound KRAS wild-type protein (Homo sapiens, UniProt P01116); assay: Binding to KRAS by surface plasmon resonance (SPR), dissociation constant KD; conditions: 1:1 binding model
Procedure, shortened: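 GDP-bound biotin-Avi RAS captured at ~100–300 RU, 30°C, pH 7.4 HBS containing 10 µM GDP, 10 mM MgCl2, 1 mM DTT, 0.01% Tween 20 and 4% DMSO. KD by 1:1 fitting.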

[3] = target: GDP-bound NRAS wild-type protein (Homo sapiens, UniProt P01111); assay: Binding to NRAS by surface plasmon resonance (SPR), KD and KD ratio to KRAS
Procedure, shortened: as §1

[4] = ratio of KD for HRAS wild-type protein to KD for KRAS
[5] = ratio of KD for GDP-bound NRAS wild-type protein to KD for KRAS

Sequence of GDP-bound NRAS wild-type protein (P01111 whole entry): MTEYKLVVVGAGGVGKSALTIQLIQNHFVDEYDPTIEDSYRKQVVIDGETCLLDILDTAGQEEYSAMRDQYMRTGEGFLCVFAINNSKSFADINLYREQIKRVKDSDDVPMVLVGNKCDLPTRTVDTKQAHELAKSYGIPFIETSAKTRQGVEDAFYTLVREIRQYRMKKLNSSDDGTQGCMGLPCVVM
Sequence of GDP-bound KRAS wild-type protein (P01116 1-188 isoform P01116-2): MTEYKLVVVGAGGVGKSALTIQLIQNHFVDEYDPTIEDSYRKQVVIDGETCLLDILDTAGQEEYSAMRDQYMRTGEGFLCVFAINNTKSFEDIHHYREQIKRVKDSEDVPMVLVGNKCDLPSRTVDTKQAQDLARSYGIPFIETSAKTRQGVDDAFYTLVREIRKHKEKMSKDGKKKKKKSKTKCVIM
Sequence of HRAS wild-type protein (P01112 whole entry): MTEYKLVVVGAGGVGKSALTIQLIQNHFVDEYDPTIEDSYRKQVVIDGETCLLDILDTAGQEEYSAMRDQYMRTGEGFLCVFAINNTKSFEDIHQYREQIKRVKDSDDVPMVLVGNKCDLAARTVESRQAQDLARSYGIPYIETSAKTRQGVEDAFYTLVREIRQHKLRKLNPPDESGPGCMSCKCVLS

| Structure (SMILES) | IC50 [1] [nM] | HRAS /KRAS (HRAS wild-type protein; [4]) | Kd [2] [nM] | NRAS /KRAS [3, 5] | HRAS /KRAS (HRAS wild-type protein; ratio of the KD value with respect to HRAS wild-type protein to the KD value with respect to KRAS) | Kd ([2]; Single Cycle Kinetics) [nM] | NRAS /KRAS ([3]; ratio of the KD value with respect to GDP-bound NRAS wild-type protein to the KD value with respect to KRAS) |
| --- | --- | --- | --- | --- | --- | --- | --- |
| CCCN1C(=O)CN(C)C(=O)[C@@H]2CCN2C(=O)[C@H](C2CCCC2)NC(=O)[C@H](CC(C)C)N(C)C(=O)C[C@@H](C(=O)N2CCOCC2)N(C)C(=O)[C@H](C2CCCC2)N(C)C(=O)C2(CCCC2)NC(=O)[C@@H]2CCCN2C(=O)[C@H](CCc2ccc(C(F)(F)F)c(Cl)c2)NC(=O)CN(C)C(=O)[C@@H]1Cc1ccc(C(F)(F)F)cc1 [PP0306] ([NMeL][Gly(cPent)][Aze][Sar][NPrPhe(4-CF3)][Sar][hPhe(3-Cl-4-CF3)]P[Ac5c][NMeGly(cPent)][NMeD]-Morpholide; lactam N-11) | 142 | B (a compound having 3 or more and less than 10 is denoted as B) | 1.2 | B (a compound having 3 or more and less than 10 is denoted as B) | – | – | – |
| CCCN1C(=O)CN(C)C(=O)[C@@H]2CCN2C(=O)[C@H]([C@@H](C)CC)NC(=O)[C@H](CC(C)C)N(C)C(=O)C[C@@H](C(=O)N2CCOCC2)N(C)C(=O)[C@H](C2CCCC2)N(C)C(=O)C2(CCCC2)NC(=O)[C@@H]2CCN2C(=O)[C@H](CCc2ccc(C(F)(F)F)c(Cl)c2)NC(=O)CN(C)C(=O)[C@@H]1Cc1ccc(C(F)(F)F)cc1 [PP0307] ([NMeL]I[Aze][Sar][NPrPhe(4-CF3)][Sar][hPhe(3-Cl-4-CF3)][Aze][Ac5c][NMeGly(cPent)][NMeD]-Morpholide; lactam N-11) | 205 | B (a compound having 3 or more and less than 10 is denoted as B) | 2.1 | B (a compound having 3 or more and less than 10 is denoted as B) | – | – | – |
| CCCN1C(=O)CN(C)C(=O)[C@@H]2CCN2C(=O)[C@H]([C@@H](C)CC)NC(=O)[C@H](CC(C)C)N(C)C(=O)C[C@@H](C(=O)N2CCOCC2)N(C)C(=O)[C@H](C2CCCC2)N(C)C(=O)C2(CCCC2)NC(=O)[C@@H]2CC3(CC3)CN2C(=O)[C@H](CCc2ccc(C(F)(F)F)c(Cl)c2)NC(=O)CN(C)C(=O)[C@@H]1Cc1ccc(C(F)(F)F)cc1 [PP0308] ([NMeL]I[Aze][Sar][NPrPhe(4-CF3)][Sar][hPhe(3-Cl-4-CF3)][Pro(4-spirocPr)][Ac5c][NMeGly(cPent)][NMeD]-Morpholide; lactam N-11) | 56 | B (a compound having 3 or more and less than 10 is denoted as B) | 1.1 | B (a compound having 3 or more and less than 10 is denoted as B) | – | – | – |
| CCCN1C(=O)CN(C)C(=O)[C@@H]2CCN2C(=O)[C@H]([C@@H](C)CC)NC(=O)[C@H](CC(C)C)N(C)C(=O)C[C@@H](C(=O)N2CCOCC2)N(C)C(=O)[C@H](C2CCCC2)N(C)C(=O)C2(CCCC2)NC(=O)[C@@H]2C[C@@H](OC)CN2C(=O)[C@H](CCc2ccc(C(F)(F)F)c(Cl)c2)NC(=O)CN(C)C(=O)[C@@H]1Cc1ccc(C(F)(F)F)cc1 [PP0309] ([NMeL]I[Aze][Sar][NPrPhe(4-CF3)][Sar][hPhe(3-Cl-4-CF3)][Hyp](Me)[Ac5c][NMeGly(cPent)][NMeD]-Morpholide; lactam N-11) | 11.7 | B (a compound having 3 or more and less than 10 is denoted as B) | 0.29 | B (a compound having 3 or more and less than 10 is denoted as B) | – | – | – |
| CCCN1C(=O)CN(C)C(=O)[C@@H]2CCN2C(=O)[C@H]([C@@H](C)CC)NC(=O)[C@H](CC(C)C)N(C)C(=O)C[C@@H](C(=O)N2CCOCC2)N(C)C(=O)[C@H](C2CCCC2)N(C)C(=O)C2(CCCC2)NC(=O)[C@@H]2COCCN2C(=O)[C@H](CCc2ccc(C(F)(F)F)c(Cl)c2)NC(=O)CN(C)C(=O)[C@@H]1Cc1ccc(C(F)(F)F)cc1 [PP0313] ([NMeL]I[Aze][Sar][NPrPhe(4-CF3)][Sar][hPhe(3-Cl-4-CF3)][Morpholine(3S-CO)][Ac5c][NMeGly(cPent)][NMeD]-Morpholide; lactam N-11) | 56.6 | C (A compound having a KD ratio of 0.1 or more and less than 3 is denoted as C) | 2.2 | B (a compound having 3 or more and less than 10 is denoted as B) | – | – | – |
| CC[C@H](C)[C@@H]1NC(=O)[C@H](CC(C)C)N(C)C(=O)C[C@@H](C(=O)N2CCOCC2)N(C)C(=O)[C@H](C2CCCC2)N(C)C(=O)C2(CCCC2)NC(=O)[C@@H]2CCCN2C(=O)[C@H](CCc2ccc(C(F)(F)F)c(Cl)c2)NC(=O)CN(C)C(=O)[C@H](Cc2ccc(C(F)(F)F)cc2)N2CCCCC[C@@H](C2=O)N(C)C(=O)CN(C)C1=O [PP0319] | 23.5 | B (a compound having 3 or more and less than 10 is denoted as B) | 1.8 | B (a compound having 3 or more and less than 10 is denoted as B) | – | – | – |
| CCCN1C(=O)CN(C)C(=O)[C@@H]2CCN2C(=O)[C@H]([C@@H](C)CC)NC(=O)[C@H](CC(C)C)N(C)C(=O)C[C@@H](C(=O)N2CCOCC2)NC(=O)[C@H](C2CCCC2)N(C)C(=O)C2(CCC2)NC(=O)[C@@H]2CCCN2C(=O)[C@H](CCc2ccc(C(F)(F)F)c(Cl)c2)NC(=O)CN(C)C(=O)[C@@H]1Cc1ccc(C(F)(F)F)cc1 [PP0338] ([NMeL]I[Aze][Sar][NPrPhe(4-CF3)][Sar][hPhe(3-Cl-4-CF3)]P[Ac4c][NMeGly(cPent)]D-Morpholide; lactam N-11) | 296 | B (a compound having 3 or more and less than 10 is denoted as B) | 3.6 | B (a compound having 3 or more and less than 10 is denoted as B) | – | – | – |
| CCCN1C(=O)CN(C)C(=O)[C@@H]2CCN2C(=O)[C@H]([C@@H](C)CC)NC(=O)[C@H](CC(C)C)N(C)C(=O)C[C@@H](C(=O)N2CCOCC2)NC(=O)[C@H](C2CCCC2)N(C)C(=O)C2(CCC2)NC(=O)[C@@H]2CC(F)(F)CN2C(=O)[C@H](CCc2ccc(C(F)(F)F)c(Cl)c2)NC(=O)CN(C)C(=O)[C@@H]1Cc1ccc(C(F)(F)F)cc1 [PP0340] ([NMeL]I[Aze][Sar][NPrPhe(4-CF3)][Sar][hPhe(3-Cl-4-CF3)][Pro(4,4-F2)][Ac4c][NMeGly(cPent)]D-Morpholide; lactam N-11) | 177 | B (a compound having 3 or more and less than 10 is denoted as B) | 3.7 | B (a compound having 3 or more and less than 10 is denoted as B) | – | – | – |
| CCCN1C(=O)CN(C)C(=O)[C@@H]2CCN2C(=O)[C@H]([C@@H](C)CC)NC(=O)[C@H](CC(C)C)N(C)C(=O)C[C@@H](C(=O)N2CCOCC2)NC(=O)[C@H](C2CCCC2)N(C)C(=O)C2(CCCC2)NC(=O)[C@@H]2C[C@@H](OCC)CN2C(=O)[C@H](CCc2ccc(C(F)(F)F)c(Cl)c2)NC(=O)CN(C)C(=O)[C@@H]1Cc1ccc(C(F)(F)F)cc1 [PP0341] ([NMeL]I[Aze][Sar][NPrPhe(4-CF3)][Sar][hPhe(3-Cl-4-CF3)][Hyp](Et)[Ac5c][NMeGly(cPent)]D-Morpholide; lactam N-11) | 135 | B (a compound having 3 or more and less than 10 is denoted as B) | 1.4 | B (a compound having 3 or more and less than 10 is denoted as B) | – | – | – |
| CCCN1C(=O)CN(C)C(=O)[C@@H]2CCN2C(=O)[C@H]([C@@H](C)CC)NC(=O)[C@H](CC(C)C)N(C)C(=O)C[C@@H](C(=O)N(C)C)NC(=O)[C@H](C2CCCC2)N(C)C(=O)C2(CCC2)NC(=O)[C@@H]2CC(F)(F)CN2C(=O)[C@H](CCc2ccc(C(F)(F)F)c(Cl)c2)NC(=O)CN(C)C(=O)[C@@H]1Cc1ccc(C(F)(F)F)cc1 [PP0376] ([NMeL]I[Aze][Sar][NPrPhe(4-CF3)][Sar][hPhe(3-Cl-4-CF3)][Pro(4,4-F2)][Ac4c][NMeGly(cPent)]D-NMe2; lactam N-11) | 114 | B (a compound having 3 or more and less than 10 is denoted as B) | 2 | B (a compound having 3 or more and less than 10 is denoted as B) | – | – | – |
| CCCN1C(=O)CN(C)C(=O)[C@@H]2CCN2C(=O)[C@H]([C@@H](C)CC)NC(=O)[C@H](CC(C)C)N(C)C(=O)C[C@@H](C(=O)N(C)C)NC(=O)[C@H](C2CCCC2)N(C)C(=O)C2(CCC2)NC(=O)[C@@H]2C[C@@H](OCC)CN2C(=O)[C@H](CCc2ccc(C(F)(F)F)c(Cl)c2)NC(=O)CN(C)C(=O)[C@@H]1Cc1ccc(C(F)(F)F)cc1 [PP0378] ([NMeL]I[Aze][Sar][NPrPhe(4-CF3)][Sar][hPhe(3-Cl-4-CF3)][Hyp](Et)[Ac4c][NMeGly(cPent)]D-NMe2; lactam N-11) | 110 | B (a compound having 3 or more and less than 10 is denoted as B) | 0.85 | B (a compound having 3 or more and less than 10 is denoted as B) | – | – | – |
| CCCN1C(=O)CN(C)C(=O)[C@@H]2CCN2C(=O)[C@H]([C@@H](C)CC)NC(=O)[C@H](CC(C)C)N(C)C(=O)C[C@@H](C(=O)N2CCOCC2)N(C)C(=O)[C@H](C2CCCC2)N(C)C(=O)C2(CCC2)NC(=O)[C@@H]2CCCN2C(=O)[C@H](CCc2ccc(C(F)(F)F)c(Cl)c2)NC(=O)CN(C)C(=O)[C@@H]1Cc1ccc(C(F)(F)F)cc1 [PP0402] ([NMeL]I[Aze][Sar][NPrPhe(4-CF3)][Sar][hPhe(3-Cl-4-CF3)]P[Ac4c][NMeGly(cPent)][NMeD]-Morpholide; lactam N-11) | 58.1 | – | – | – | C (A compound having a KD ratio of 0.1 or more and less than 3 is denoted as C) | 1.2 | B (a compound having 3 or more and less than 10 is denoted as B) |
